# Laboratory results reported in PMC8428802 (Journal of medicinal chemistry, 2020).
# Legend:
# [1] = biological target: over 30 brain receptors or channels; test: NIMH-PDSP broad-panel counter screening; type: binding; settings: 10 μM
# [2] = test system: HEK293 cells lacking GPR52; test: cAMP control study in HEK293 cells lacking GPR52; type: cell-based, human
# hERG = hERG (Homo sapiens, UniProt Q12809); test: NIMH-PDSP counter screening, hERG binding; settings: 10 μM
# human GPR52 = human GPR52 (Homo sapiens, UniProt Q9Y2T5); test: Glosensor cAMP assay in HEK293 cells transiently expressing human GPR52; type: cell-based; settings: for decreased EC50 (loss of potency): comparator not stated
# Chain of human GPR52 (Q9Y2T5 whole entry): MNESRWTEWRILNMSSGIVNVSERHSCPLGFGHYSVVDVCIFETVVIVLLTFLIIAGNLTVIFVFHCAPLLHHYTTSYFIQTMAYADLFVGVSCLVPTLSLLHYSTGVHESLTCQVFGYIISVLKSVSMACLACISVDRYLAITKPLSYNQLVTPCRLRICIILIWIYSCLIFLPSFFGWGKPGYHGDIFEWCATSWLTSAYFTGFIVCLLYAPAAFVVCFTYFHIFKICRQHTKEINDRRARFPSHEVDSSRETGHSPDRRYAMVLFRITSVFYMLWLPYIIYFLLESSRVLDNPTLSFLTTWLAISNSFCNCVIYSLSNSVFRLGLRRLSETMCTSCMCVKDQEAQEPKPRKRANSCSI
# Chain of hERG (Q12809 whole entry): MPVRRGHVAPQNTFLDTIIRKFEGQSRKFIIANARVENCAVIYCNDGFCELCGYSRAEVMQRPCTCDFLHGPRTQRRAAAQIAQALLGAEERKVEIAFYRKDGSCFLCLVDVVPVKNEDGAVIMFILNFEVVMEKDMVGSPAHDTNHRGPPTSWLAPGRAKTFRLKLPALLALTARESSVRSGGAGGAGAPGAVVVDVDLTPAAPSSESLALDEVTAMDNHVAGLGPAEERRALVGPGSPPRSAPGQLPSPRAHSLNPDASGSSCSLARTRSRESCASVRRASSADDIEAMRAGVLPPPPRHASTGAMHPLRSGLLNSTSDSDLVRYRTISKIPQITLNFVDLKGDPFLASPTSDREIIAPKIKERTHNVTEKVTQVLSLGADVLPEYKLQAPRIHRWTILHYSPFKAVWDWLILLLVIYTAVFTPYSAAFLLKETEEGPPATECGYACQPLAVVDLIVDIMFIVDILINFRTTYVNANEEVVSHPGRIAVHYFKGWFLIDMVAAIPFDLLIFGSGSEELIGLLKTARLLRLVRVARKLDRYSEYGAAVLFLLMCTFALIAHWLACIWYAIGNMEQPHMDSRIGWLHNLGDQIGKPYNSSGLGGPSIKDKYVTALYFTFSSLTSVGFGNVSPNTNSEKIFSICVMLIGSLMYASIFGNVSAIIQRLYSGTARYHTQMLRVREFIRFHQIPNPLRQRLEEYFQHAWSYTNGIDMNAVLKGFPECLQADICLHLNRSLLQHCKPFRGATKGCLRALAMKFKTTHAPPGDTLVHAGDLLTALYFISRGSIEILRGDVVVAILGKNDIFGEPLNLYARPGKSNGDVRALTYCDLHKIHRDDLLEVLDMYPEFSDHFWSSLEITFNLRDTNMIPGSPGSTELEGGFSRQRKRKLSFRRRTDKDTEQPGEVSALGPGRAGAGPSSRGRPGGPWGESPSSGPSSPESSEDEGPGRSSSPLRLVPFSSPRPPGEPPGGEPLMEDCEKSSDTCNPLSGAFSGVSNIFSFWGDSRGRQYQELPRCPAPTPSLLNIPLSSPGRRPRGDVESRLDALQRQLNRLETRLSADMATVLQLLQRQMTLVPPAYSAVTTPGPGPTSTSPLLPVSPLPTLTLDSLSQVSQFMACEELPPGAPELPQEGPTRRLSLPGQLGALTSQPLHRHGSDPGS
structure (smiles),measurement,setting,value
"O=C(NCCO)c1cccc2c1CCN2c1cc(Cc2cc(F)cc(C(F)(F)F)c2)ncn1 [Compound 12c, 1-(6-(3-Fluoro-5-(trifluoromethyl)benzyl)pyrimidin-4-yl)-N-(2-hydroxyethyl)indoline-4-carboxamide]",binding affinity (Ki) at panel,[1],no significant binding affinity
same,cAMP increase in cells lacking GPR52,[2],did not increase cAMP
same,hERG potassium channel binding activity,hERG,did not show any
"O=C(NCCO)c1cccc2c1CCN2c1cc(Cc2ccccc2C(F)(F)F)ncn1 [Compound 23b, N-(2-Hydroxyethyl)-1-(6-(2-(trifluoromethyl)benzyl)-pyrimidin-4-yl)indoline-4-carboxamide]",loss of potency relative to 23a,human GPR52; EC50 vs compound 23a,> 7 fold
"Cc1c(Cc2cc(F)cc(C(F)(F)F)c2)cnnc1N1CCc2c(C(=O)NCCO)cccc21 [Compound 12e, 1-(5-(3-Fluoro-5-(trifluoromethyl)benzyl)-4-methylpyridazin-3-yl)-N-(2-hydroxyethyl)indoline-4-carboxamide]",decreased EC50 (loss of potency),human GPR52,> 4 fold
"O=C(NCCO)c1cccc2c1CCN2c1nncc(Cc2cc(F)cc(C(F)(F)F)c2)c1Cl [Compound 12f, 1-(4-Chloro-5-(3-fluoro-5-(trifluoromethyl)benzyl)-pyridazin-3-yl)-N-(2-hydroxyethyl)indoline-4-carboxamide]",decreased EC50 (loss of potency),human GPR52,> 4 fold
